Data on 18 compounds can be found in publication PMC6749389, “Synthesis and In Vitro Anti-Toxoplasma gondii Activity of Novel Thiazolidin-4-one Derivatives” (Molecules, 2019).

Series [1] in a line: Cytotoxic assay (MTT, ISO 10993-5:2009(E)), 24 h treatment. Format: cell-based. Particulars: L929 mouse fibroblast cells, L929 mouse fibroblasts, values above highest tested concentration extrapolated. The method, then:
The L929 mouse fibroblast (ATTC® CCL-1™, Manassas, VA, USA) were culturing according to the ATCC product sheet. […] The cell viability assay were performed precisely according to international standards (ISO 10993-5:2009(E)), using the tetrazolium salt [3-(4,5-dimethylthiazol-2-yl)-2,5-diphenyltetrazolium bromide] (MTT, Sigma-Aldrich) and mouse fibroblasts L929 cells. Cells (1 × 10^4 per well) were treated 24 h with compounds or drug in different concentration range. The optical density at 570 nm on the ELISA reader (Multiskan EX, Labsystems, Vienna, VA, USA), was read. The results were expressed as a percentage of viability compared to untreated cells. […] The CC30/CC50 represents the concentration of tested compounds or drugs that was required for 30% or 50% cells proliferation inhibition in vitro. According to the previously mentioned ISO 10993-5:2009(E) norm, the CC30 value is recognized as non-cytotoxic concentration for the cell line. All experiments were performed in triplicate.

The test system of series [2] is T. gondii tachyzoites (RH strain). Put plainly: In vitro anti-T. gondii activity, [3H]-uracil incorporation assay in infected Hs27 cells. The format is cell-based, Toxoplasma gondii. As to conditions: for IC50: Toxoplasma gondii, T. gondii RH tachyzoites proliferation in Hs27 cells, na = not active in the tested concentration range; for SR (selectivity ratio): ratio of CC50 (L929) to IC50 (T. gondii); for inhibition of proliferation, fold better (lower IC50) than sulfadiazine: relative to sulfadiazine.

A value given as a limit tells only on which side of the number the result lay.

In general, CC50 refers to the concentration at which the toxic effect on the cells reaches its halfway point. One may read the IC50 as the concentration that gives 50% inhibition. The low end stands for inhibition by little substance, the high end for a need for much substance. The term melting point denotes the temperature of the solid-liquid transition. Turning to `CCOc1cc(C=NN=C2SC(=CC(=O)OC)C(=O)N2c2ccccc2)ccc1O` [Compound 93, Methyl [2-{[(3-ethoxy-4-hydroxyphenyl)methylidene]hydrazinylidene}-4-oxo-3-phenyl-1,3-thiazolidin-5-ylidene]acetate], the melting point is 190 to 192 °C. For the same compound, in series [1], the CC50 at 24 h is 463 µM. Further, in series [2], the IC50 turned out to be 191 µM and the “SR (selectivity ratio)” value was 2.42.
The compound `O=C(O)CC1SC(=NN=Cc2ccc(O)c(Br)c2)N(c2ccc(Cl)cc2)C1=O` (stereo not shown) [Compound 87, [2-{[(3-Bromo-4-hydroxyphenyl)methylidene]hydrazinylidene}-3-(4-chlorophenyl)-4-oxo-1,3-thiazolidin-5-yl]acetic acid] gave a melting point of 254 to 255 °C. The CC50 at 24 h in series [1] is 425 µM. Moreover, in series [2], it took 116 µM to reach half-maximal inhibition (IC50); the “SR (selectivity ratio)” value worked out at 3.66; the “inhibition of proliferation, fold better (lower IC50) than sulfadiazine” value was “about 90 fold”.
`COc1cc(C=NN=C2SC(CC(=O)O)C(=O)N2c2ccc(Cl)cc2)ccc1O` (stereo not shown) [Compound 84, [3-(4-Chlorophenyl)-2-{[(4-hydroxy-3-methoxyphenyl)methylidene]hydrazinylidene}-4-oxo-1,3-thiazolidin-5-yl]acetic acid] returned a melting point of 254 to 256 °C. Also, the CC50 at 24 h in series [1] is 827 µM. In addition, in series [2], half-maximal inhibition (IC50) was put at 220 µM and the “SR (selectivity ratio)” value is 3.76.
With `O=C(O)CC1SC(=NN=Cc2ccc(O)c(Cl)c2)N(c2ccc(Cl)cc2)C1=O` (stereo not shown) [Compound 86, [2-{[(3-Chloro-4-hydroxyphenyl)methylidene]hydrazinylidene}-3-(4-chlorophenyl)-4-oxo-1,3-thiazolidin-5-yl]acetic acid], the melting point lay within 256 to 257 °C. For the same compound, the CC50 at 24 h in series [1] is at least 1000 µM. In series [2], the IC50 was 178 µM and the “SR (selectivity ratio)” value was at least 5.63.
In the same order, the values of `COC(=O)C=C1SC(=NN=Cc2ccc(O)c(OC)c2)N(c2ccccc2)C1=O` [Compound 92, Methyl [2-{[(4-hydroxy-3-methoxyphenyl)methylidene]hydrazinylidene}-4-oxo-3-phenyl-1,3-thiazolidin-5-ylidene]acetate] are 210 to 212 °C, 486 µM, 180 µM and 2.69.
In the case of `COc1cc(C=NN=C2SC(CC(=O)O)C(=O)N2c2ccc(Cl)cc2Cl)ccc1O` (stereo not shown) [Compound 88, [3-(2,4-Dichlorophenyl)-2-{[(4-hydroxy-3-methoxyphenyl)methylidene]hydrazinylidene}-4-oxo-1,3-thiazolidin-5-yl]acetic acid], the melting point was in the range of 226 to 228 °C. Besides, in series [1], the 50% cytotoxic concentration (CC50) at 24 h is 566 µM. In series [2], half-maximal inhibition (IC50) was put at 129 µM; the “SR (selectivity ratio)” value is on record as 4.37; the “inhibition of proliferation, fold better (lower IC50) than sulfadiazine” value is on record as “about 90 fold”.
`O=C(O)CC1SC(=NN=Cc2cccc(O)c2)N(c2ccc(Cl)cc2)C1=O` (stereo not shown) [Compound 82, [3-(4-Chlorophenyl)-2-{[(3-hydroxyphenyl)methylidene]hydrazinylidene}-4-oxo-1,3-thiazolidin-5-yl]acetic acid] had a melting point of 226 to 228 °C. Also, in series [1], the CC50 at 24 h is 656 µM. For the same compound, in series [2], the IC50 came to 263 µM and the “SR (selectivity ratio)” value turned out to be 2.49.
In the case of `O=C(O)CC1SC(=NN=Cc2ccc(O)cc2)N(c2ccc(Cl)cc2)C1=O` (stereo not shown) [Compound 83, [3-(4-Chlorophenyl)-2-{[(4-hydroxyphenyl)methylidene]hydrazinylidene}-4-oxo-1,3-thiazolidin-5-yl]acetic acid], the melting point fell in the range of 234 to 235 °C. Also, in series [1], the CC50 at 24 h is 906 µM. In series [2], the half-maximal inhibitory concentration (IC50) amounted to 271 µM and the “SR (selectivity ratio)” value is 3.34.
As for `COC(=O)C=C1SC(=NN=Cc2cccc(O)c2)N(c2ccccc2)C1=O` [Compound 90, Methyl [2-{[(3-hydroxyphenyl)methylidene]hydrazinylidene}-4-oxo-3-phenyl-1,3-thiazolidin-5-ylidene]acetate], the melting point fell in the range of 236 to 238 °C. Moreover, in series [1], the CC50 at 24 h was 234 µM.
`O=C1CSC(=NN=Cc2cccc(O)c2)N1c1ccc(Cl)cc1` [Compound 58, 3-(4-Chlorophenyl)-2-{[(3-hydroxyphenyl)methylidene]hydrazinylidene}-1,3-thiazolidin-4-one]: the melting point was 230 to 232 °C. For the same compound, the CC50 at 24 h in series [1] was 173 µM.
Compound `O=C1CSC(=NN=Cc2ccc(O)cc2)N1c1ccc(Cl)cc1` [Compound 59, 3-(4-Chlorophenyl)-2-{[(4-hydroxyphenyl)methylidene]hydrazinylidene}-1,3-thiazolidin-4-one] gave a melting point of 280 to 282 °C. For the same compound, the CC50 at 24 h in series [1] was 318 µM.
In the case of `O=C(O)CC1SC(=NN=Cc2ccccc2O)N(c2ccccc2)C1=O` (stereo not shown) [Compound 74, [2-{[(2-Hydroxyphenyl)methylidene]hydrazinylidene}-4-oxo-3-phenyl-1,3-thiazolidin-5-yl]acetic acid], the melting point lay in the range of 228 to 230 °C. Besides, in series [1], the CC50 at 24 h was 501 µM.
In the case of `O=C1CSC(=NN=Cc2cccc(O)c2)N1c1ccc(Br)cc1` [Compound 65, 3-(4-Bromophenyl)-2-{[(3-hydroxyphenyl)methylidene]hydrazinylidene}-1,3-thiazolidin-4-one], the melting point was 242 to 244 °C. The CC50 at 24 h in series [1] is 83.5 µM.
In the case of `COC(=O)C=C1SC(=NN=Cc2ccc(O)cc2)N(c2ccc(Cl)cc2)C1=O` [Compound 99, Methyl [3-(4-chlorophenyl)-2-{[(4-hydroxyphenyl)methylidene]hydrazinylidene}-4-oxo-1,3-thiazolidin-5-ylidene]acetate], the melting point is 250 to 251 °C. Besides, in series [1], the CC50 at 24 h is 230 µM.
Take `COC(=O)C=C1SC(=NN=Cc2ccccc2O)N(c2ccccc2)C1=O` [Compound 89, Methyl [2-{[(2-hydroxyphenyl)methylidene]hydrazinylidene}-4-oxo-3-phenyl-1,3-thiazolidin-5-ylidene]acetate]: the melting point was in the range of 242 to 244 °C. The CC50 at 24 h in series [1] is 304 µM.
`O=C1CSC(=NN=Cc2ccc(O)cc2)N1c1ccccc1Cl` [Compound 50, 3-(2-Chlorophenyl)-2-{[(4-hydroxyphenyl)methylidene]hydrazinylidene}-1,3-thiazolidin-4-one] yielded a melting point of 178 to 180 °C. The CC50 at 24 h in series [1] was 226 µM.
As for `COC(=O)C=C1SC(=NN=Cc2cccc(O)c2)N(c2ccc(Cl)cc2)C1=O` [Compound 98, Methyl [3-(4-chlorophenyl)-2-{[(3-hydroxyphenyl)methylidene]hydrazinylidene}-4-oxo-1,3-thiazolidin-5-ylidene]acetate], the melting point lay within 222 to 224 °C. In series [1], the CC50 at 24 h is 167 µM.
In the case of `Nc1ccc(S(=O)(=O)Nc2ncccn2)cc1` [Sulfadiazine, 4-amino-N-(2-pyrimidinyl)benzenesulfonamide, reference compound], in series [1], the CC50 at 24 h is at least 10000 µM. Also, in series [2], half-maximal inhibition (IC50) required 10900 µM and the “SR (selectivity ratio)” value is reported as at least 0.92.
